{"source": "patent US11939302B2", "about": "“Compounds for the treatment of Alzheimer's disease” (The Governors of the University of Alberta, priority 2020, dated 2024)", "key": {"N2a neuronal cells": {"test_system": "N2a neuronal cells", "experiment": "MTT cell death assay, amyloid beta toxicity", "format": "cell-based, mouse", "conditions": "N2a cell line; Aβ1-42 10 μM, soluble oligomeric; 24-48 h; FIG. 4", "experimental": "MTT Cell Death Assay. The N2a (mouse) and SK-N-SH (human) neuronal cells were seeded to 5000 cells/well in a 96-well plate in DMEM medium, 10% FBS and incubated overnight. Cells in culture medium were incubated either with or without the assay compounds and Aβ1-42, 10 μM for 24-48 h. At the end of treatment, 20 μL of 5 mg/mL 3-(4,5-dimethylthiazol-2-yl)-2,5-diphenyltetrazolium bromide (MTT, Sigma) was added to each well and incubated at 37° C. for 3 h. Medium was removed, 100 μL of MTT solvent (isopropanol with 4 mM HCl) was added to each well, and the plates were incubated for 30 min at room temperature on a rotating shaker. Plates were analyzed on a microplate reader at a 562 nm wavelength."}, "[1]": {"target": "T1, amylin receptor subtype 3 (AMY3) (Homo sapiens, UniProt O60896+P30988)", "T1 construct": "expressed in transfected cells", "T1 sequence (P30988 25-474)": "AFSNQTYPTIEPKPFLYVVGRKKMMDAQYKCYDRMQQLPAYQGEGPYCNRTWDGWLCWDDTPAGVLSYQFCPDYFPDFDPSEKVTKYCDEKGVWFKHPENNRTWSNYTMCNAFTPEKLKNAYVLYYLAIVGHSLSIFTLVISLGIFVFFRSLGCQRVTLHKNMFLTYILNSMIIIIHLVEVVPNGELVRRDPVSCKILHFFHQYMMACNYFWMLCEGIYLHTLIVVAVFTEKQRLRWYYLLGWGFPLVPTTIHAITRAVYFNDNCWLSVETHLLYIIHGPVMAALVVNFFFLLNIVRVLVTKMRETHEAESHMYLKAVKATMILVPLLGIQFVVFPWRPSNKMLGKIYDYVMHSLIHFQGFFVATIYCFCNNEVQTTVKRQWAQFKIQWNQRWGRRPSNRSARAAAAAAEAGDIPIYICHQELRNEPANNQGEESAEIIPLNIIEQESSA", "T1 sequence (O60896 24-148 partner)": "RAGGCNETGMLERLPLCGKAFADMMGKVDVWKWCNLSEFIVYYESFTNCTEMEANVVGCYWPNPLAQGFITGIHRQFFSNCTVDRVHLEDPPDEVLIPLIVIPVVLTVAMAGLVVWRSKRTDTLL", "experiment": "Kinetic intracellular Ca2+ changes (Fluo-8L-AM) in AMY3-HEK293 cells", "format": "cell-based", "conditions": "human amylin 0.5 μM; compound 0.01-10 μM range; FIG. 3", "experimental": "Kinetic Intracellular Ca^2+ Changes. Dynamic changes of the free cytosolic Ca2+ concentration were monitored with microplate reader. For monitor amylin induced intracellular Ca^2+, AMY3-HEK293 cells were plated on 96 well cell culture plates and incubated at 37° C. for 12-36 h with DMEM, 10% FBS, and Zeocin medium. For Ca^2+ changes, the AMY3-HEK293 cells were washed twice with assay solution which ion content similar to extracellular brain fluid thus containing the following: 130 mM NaCl, 4 mM KCl, 1 mM MgCl2, 2 mM CaCl2), 10 mM HEPES, and 10 mM glucose (pH 7.35). Then incubated with the membrane-permeant fluorescent Ca^2+-sensitive dye Fluo-8L-AM (AAT Bioquest, Inc., Sunnyvale, CA), with 5 μM of the agent for 40 min at room temperature (20-23° C.) in assay solution. The test compounds were added in various concentrations of 0.01, 0.1, 1, and 10 μM for 10 min and kinetic measured the fluorescent intensity with Varioskan-LUX microplate reader (Thermo Fisher Scientific, Waltham, MA). Human amylin were dissolved in sterile bidistilled water at 1 mM stock solution and incubated at room temperature for 10 min before dilution with assay solution for use at a final concentration of 0.5 μM. Fluorescent intensity was measured at excitation/emission wavelength of 488/514 nm, excitation bandwidth 12 nm, kinetic interval 1 min, and measure time at 100 ms. […]"}, "[2]": {"target": "T1, amylin receptor subtype 3 (AMY3)", "experiment": "cAMP ELISA in AMY3-HEK cells, reduction of human amylin induced cAMP", "format": "cell-based", "conditions": "FIG. 2; for Mode of action indicated by cAMP assays in amylin receptor subtype 3 expressing cells: AMY3 expressing cells; for Human amylin generation of cAMP in the presence of compound: human amylin 0.1 μM, compound 10 μM, AMY3-HEK cells", "experimental": "Compounds described herein were screened using a cAMP (cyclic adenosine monophosphate) assay in amylin receptor subtype 3 expressing cells (See FIG. 1).\nCell Cultures. Amylin receptor subtypes (AMY3-HEK cells) stably expressed in human embryonic kidney (HEK293) cell-line were generated and characterized as described in a previous published article (Fu et al., J. Biol. Chem. 2012). The AMY3-HEK cells were grown in a 5% CO2 humidified incubator at 37° C. with DMEM, 10% FBS, and 100 μg/mL Zeocin medium.\nELISA (enzyme-linked immunosorbent assay). Cellular cAMP levels were measured using a parameter cyclic AMP assay kit (R&D Systems) according to the manufacturer's instructions. Briefly, AMY3-HEK cells were plated on 24-well plates overnight. These cells were then incubated with or without the assay compounds and hAmylin for 5 min. The cells were lysed with lysis buffer provided in the assay kit. Standard curves were plotted using the cAMP standards provided in the ELISA kits. All samples were analyzed in duplicate. The plate was measured at 450 nm. Data was plotted, and non-linear regression was fitted with four parameters using Prism software (GraphPad Software, La Jolla, CA).\nCompounds were assayed based on potency of reduction at 10 μM of 0.1 μM human Amylin (hAmylin) induced cAMP increases."}, "[3]": {"test_system": "hippocampal long term potentiation (LTP)", "experiment": "Hippocampal long term potentiation (LTP) electrophysiology in brain slices", "design": "species or system mice", "conditions": "for LTP levels in hippocampal slices from transgenic AD mice (TgCRND8), chronically depressed LTP: compared with age matched wild type control (WT_Cont); for Effect on LTP from wild type control (WT_Cont) mice: WT_Cont slices; for Amyloid beta (Aβ)-induced depression of LTP / Human amylin-induced depression of LTP: compound 1 μM, brain hippocampal slices", "excerpt": "Hippocampal long term potentiation (LTP) electrophysiology experiments: an in vitro cellular surrogate for memory. Brains were quickly removed from mice following decapitation, placed in a cold artificial cerebral spinal fluid (aCSF) on a vibratome chamber and transverse sections cut through the hippocampus. The aCSF contained (in mM) 124 NaCl, 3 KCl, 2.4 CaCl2), 2 MgCl2, 1.25 NaH2PO4, 26 NaHCO3 and 10 D-glucose, and was equilibrated with 95% 02 and 5% CO2. Hippocampal slices ([…]) were maintained in aCSF-filled holding chamber at room temperature for at least 1 hour and individually transferred to the submerged glass bottom recording chamber, which was constantly perfused with aCSF (2 mL/min) at 30° C. Field excitatory postsynaptic potential (fEPSP) was recorded with a metallic (Pt/Ir) electrode (FHC, Bowdoin, ME) from the stratum radiatum layer of Cornu ammonis 1 region of the hippocampus (CA1) area, and the Schaffer collateral afferents were stimulated with 100-μs test pulses via a bipolar cluster electrode (FHC) (Kimura et al., 2012, Kimura et al. 2016). To evaluate basal synaptic transmission, we applied different stimulation strengths (75 μA to 300 μA in steps of 25 μA) and plotted the amplitudes of presynaptic fiber volleys versus the corresponding fEPSP slopes to compare the slope of input/output (I/O) curves of fEPSP. For long-term potentiation (LTP) experiments, the stimulus strength was set to elicit 40-50% of the maximum fEPSP amplitude and test pulses were delivered to Schaffer collaterals once every 30 seconds. LTP was induced by 3-theta-burst stimulation (3-TBS) protocol (each burst consisted of 4 pulses at 100 Hz with a 200-ms inter-burst interval). Before 3-TBS or drug application, the responses were monitored for at least 10 minutes to ensure a stable baseline of fEPSP. […] Results were from various treatment groups were plotted as histograms with means±standard error (SE). Statistical analysis was performed using one-way ANOVA followed by post-hoc Tukey's honestly significant difference (HSD) test (for multiple comparisons) or Student's t test (for pair-wise comparisons). All drugs and chemicals were applied directly to the slice via bath perfusion, which allowed for a complete exchange of the perfusate in less than a minute and a half."}, "long-term potentiation": {"test_system": "long-term potentiation", "conditions": "hippocampus of TgCRND8 mice; Kimura et al., 2012; 2016; cited from earlier work"}, "Aβ toxicity": {"test_system": "Aβ toxicity", "conditions": "Jhamandas et al., 2004; 2011; 2012; cited from earlier work"}}, "note": "No end group written: not given here.", "data": [{"compound": "O=c1[nH]c2ccccc2n(CCCO)c1=O", "note": "[Compound 1, 1-(3-hydroxypropyl)-1,4-dihydroquinoxaline-2,3-dione]", "values": [{"measurement": "Cytoprotection against amyloid beta (Abeta) toxicity, cell viability by MTT", "setting": "N2a neuronal cells", "value": "cytoprotective"}, {"measurement": "Elevations in intracellular calcium evoked by human amylin", "setting": "[1]", "value": "attenuated"}, {"measurement": "Mode of action indicated by cAMP assays in amylin receptor subtype 3 expressing cells", "setting": "[2]", "value": "amylin receptor antagonists"}, {"measurement": "Human amylin generation of cAMP in the presence of compound", "setting": "[2]", "value": "attenuated"}, {"measurement": "LTP levels in hippocampal slices from transgenic AD mice (TgCRND8), chronically depressed LTP", "setting": "[3]", "value": "increased LTP levels"}, {"measurement": "Effect on LTP from wild type control (WT_Cont) mice", "setting": "[3]", "value": "no effects"}, {"measurement": "Amyloid beta (Aβ)-induced depression of LTP", "setting": "[3]", "value": "blocked"}, {"measurement": "Human amylin-induced depression of LTP", "setting": "[3]", "value": "blocked"}]}, {"compound": "O=C1CN(C(=O)CCO)c2ccccc2N1", "note": "[Compound 10, 4-(3-hydroxypropanoyl)-3,4-dihydroquinoxalin-2(1H)-one]", "values": [{"measurement": "Cytoprotection against amyloid beta (Abeta) toxicity, cell viability by MTT", "setting": "N2a neuronal cells", "value": "cytoprotective"}, {"measurement": "Elevations in intracellular calcium evoked by human amylin", "setting": "[1]", "value": "attenuated"}, {"measurement": "Mode of action indicated by cAMP assays in amylin receptor subtype 3 expressing cells", "setting": "[2]", "value": "amylin receptor antagonists"}, {"measurement": "Human amylin generation of cAMP in the presence of compound", "setting": "[2]", "value": "attenuated"}, {"measurement": "LTP levels in hippocampal slices from transgenic AD mice (TgCRND8), chronically depressed LTP", "setting": "[3]", "value": "increased LTP levels to levels observed in WT_Cont mice"}, {"measurement": "Effect on LTP from wild type control (WT_Cont) mice", "setting": "[3]", "value": "no effects"}, {"measurement": "Amyloid beta (Aβ)-induced depression of LTP", "setting": "[3]", "value": "blocked"}, {"measurement": "Human amylin-induced depression of LTP", "setting": "[3]", "value": "blocked"}]}, {"compound": "AC253: peptide antagonist of the amylin receptor, 24 amino acids, SEQ ID NO: 1 (Ac-LGRLSQELHRLQTYPRTNTGSNTY)", "values": [{"measurement": "Aβ- or human amylin-induced depression of long-term potentiation", "setting": "long-term potentiation", "value": "reverse impairment"}, {"measurement": "Neuroprotection against Aβ toxicity", "setting": "Aβ toxicity", "value": "neuroprotective"}]}]}
